Test [1] deals with carbon dioxide-sensitive sensory hair of an Asian tiger mosquito. Kind of test: Evaluation of carbon dioxide response-inhibiting effect (nerve firing recording of sensory hair). To be noted: fragrance 1% in paraffin oil, 15 μL on filter paper, olfactory stimulation 1 second, nerve firings relative to paraffin oil, N=1; for pest or weed control at 1 %: Aedes albopictus, 1 s, read-out: Inhibition of carbon dioxide response (%). Format: in vivo. The method, then: (§1) Asian tiger mosquitoes grown from eggs purchased from Sumika Technoservice Corporation were used. A transparent plastic pan was filled with water to a depth of approximately 1 cm, and a filter paper on which the eggs had been deposited was put therein. The larvae were fed with tropical fish feed (TetraMin) every day. After approximately 1 week, the pupae were collected with a dropper, and transferred into a 20 mL plastic cup, and the cup was placed in a netted cage. The adults were fed with 10 mass % sucrose contained in a 25 mL plastic tube. The males and females were kept together in one cage and allowed to mate for 5 days after eclosion. After 5 days of captivity, the adults were collected with an insect aspirator and anesthetized on ice for 5 minutes, and visually sorted into males and females to collect only the females. The wings and legs were removed from each female mosquito under anesthesia, and the female mosquito was pushed onto a double-sided adhesive tape pasted on a microscope slide with the back on the tape and thus fixed thereto, and the antennae and maxillary palpi were positioned, so as to achieve the accessibility of electrodes.
A 1 mol/L aqueous solution of potassium hydroxide was injected into a 50 mL syringe, and the syringe was horizontally fixed to a magnet stand with a clamp. A tungsten wire fixed to an electrode holder was horizontally inserted into the syringe, and polished by electrolysis under microscopic observation. A current was supplied from an AC power source to the syringe through the electrode holder via crocodile clips.
The Asian tiger mosquito prepared on a microscope slide was set under a microscope, and positioned so that the antennae were at the center of the view through a ×10 objective lens. A reference electrode was inserted in the eye of the insect. A pipette for providing an olfactory stimulus was placed near the maxillary palpi, and the objective lens was replaced with a ×100 objective lens. The recording electrode was brought close to the sensory hair, and carefully inserted into the sensory hair with a micromanipulator. The peg-like shape of the carbon dioxide-sensitive sensory hair of an Asian tiger mosquito can be confirmed under microscopic observation. After insertion of the electrode into the sensory hair, the spontaneous nerve firing pattern was investigated. Carbon dioxide the concentration of which had been adjusted to 0.1% was led to an olfactory stimulation apparatus via a silicone tube to stimulate the maxillary palpi for 1 second, and the carbon dioxide response was investigated.
The concentration of each of the fragrances listed in Table 4 was adjusted to 1% with paraffin oil, and the resultant was used as a sample. On a filter paper (3 mm×50 mm) 15 μL of the sample was dropped, and the filter paper was inserted in a Pasteur pipette. The Pasteur pipette was connected to a stimulation apparatus via a plastic tube, and olfactory stimulation was performed for 1 second while the response to carbon dioxide in the air was monitored, and thus the carbon dioxide response-inhibiting effect was evaluated. The number of nerve firings in 1 second after stimulation with paraffin oil as a solvent and the number of nerve firings in 1 second after stimulation with each sample were counted, and the ratio was used for evaluation of the response-inhibiting effect (N=1). Inhibitory rate (%)=100×([number of firings after stimulation with paraffin oil−number of firings after stimulation with sample]/[[number of firings after stimulation with paraffin oil]) (Equation 2)

Test [2] concerns female Asian tiger mosquitoes. Kind of test: Evaluation of inhibitory effect on seeking behavior for heat source (thermoreception-inhibiting effect). Format: in vivo, Asian tiger mosquito. To be noted: fragrance 0.1% in ethanol, 50 μL on sheet on plate heater, landings counted after 30 seconds of contact, relative to ethanol only; for pest or weed control at 0.1 %: Aedes albopictus, 0.5 min, read-out: Inhibitory rate for seeking for heat source (%). The method, then: (1) Preparation of Asian Tiger Mosquitoes
as §1, with “10% by” for “10”, “mass” for “mass %”, “females.” for “females. The wings and legs were removed from each female mosquito under anesthesia, and the female mosquito was pushed onto a double-sided adhesive tape pasted on a microscope slide with the back on the tape and thus fixed thereto, and the antennae and maxillary palpi were positioned, so as to achieve the accessibility of electrodes.”
(2) Evaluation of Inhibitory Effect on Seeking Behavior for Heat Source
Approximately 150 to 200 female Asian tiger mosquitoes were transferred in a plastic cage (30×30×30 cm). To monitor the behavior of the female mosquitoes from the top of the plastic cage, the top surface of the cage was replaced with an acrylic plate. A plate heater (multi-panel heater 16 W for small animals, manufactured by Vivaria) as a heat source was provided at a corner of the cage from the outside of the mesh with an area of 5×3 cm exposed. To take a photograph of the heat source from the top surface in experiment, a video camera (manufactured by Sony Corporation) was disposed above the top surface. A sheet for application of a sample was fixed to the heat source with a double-sided adhesive tape.
The concentration of a fragrance listed in Table 1 was adjusted to 0.1% with ethanol to prepare a sample, and 50 μL of the sample or ethanol as a solvent was administered in experiment. To activate the female mosquitoes, 1% of carbon dioxide was administered from the top for 1 second, and then the heat source was brought into contact with the cage. After 30 seconds of contact, a photograph of the heat source was taken to count the number of mosquitoes attracted. The sheet used for the heat source was discarded and replaced with another sheet every time the assay was completed. In view of the influence of a sample on the mosquitoes, the number of evaluations performed for one cage was limited to (7 samples+1 control) at a maximum. The inhibitory rate relative to the number of landings with application of ethanol solvent only was calculated for one set of assays (7 samples+1 control) to determine the inhibitory effect by using the following equation. Inhibitory rate (%)=100×(1−[number of landings with application of sample]/[number of landings with application of ethanol]) (Equation 1)

Test [3] relates to Adult Asian tiger mosquitoes. Kind of test: Evaluation of inhibition of seeking behavior for human arm (landings on gloved hand). It is filed as in vivo, Asian tiger mosquito. To be noted: for Total landing rate (%) / Number of landings total: sample 0.4% in ethanol on cotton-gloved hand; for Total landing rate (%): relative to number of landings with control sample (ethanol) as 100%; for Number of landings total: sum total of 1, 2 and 3 minutes; for Number of landings 1 min / Number of landings 2 min / Number of landings 3 min: sample 0.4% in ethanol, sprayed 14 times (0.6 g) on cotton-gloved hand; for Number of landings 1 min: after 1 minute; for Number of landings 2 min: after 2 minutes; for Number of landings 3 min: after 3 minutes. The source says: Adult Asian tiger mosquitoes consisting of 220 females and 80 males each at 5 to 10 day old were purchased from Sumika Technoservice Corporation, and released in a 30 cm×30 cm×30 cm plastic cage (bug dorm).
The concentration of each of 2,4-dimethylcyclohex-3-ene-1-methanol (“floralol”, IFF Inc.) and octahydro-7-methyl-1,4-methanonaphthalen-6(2H)-one (“PLICATONE”, Firmenich SA) as evaluation samples was adjusted to 0.4% with ethanol. A sample containing only ethanol was used as a control.
Each of the evaluation samples and control sample was sprayed 14 times in total (0.6 g) to both sides of a hand wearing a 100% cotton glove doubly.
After application of the sample, the gloved hand was left to stand for 1 minute to volatilize ethanol, and the gloved hand with the sample applied thereto was then put in the plastic cage, and the number of mosquitoes which landed on the glove was counted every 1 minute.
The numbers of landings after 1 minute, 2 minutes, and 3 minutes, and the sum total of them were counted, and the landing rate relative to the number of landings with application of the control sample as 100% was calculated. This experiment was repeated three times.

In the case of `CCC/C=C/COC(C)=O` [trans-2-Hexenyl acetate, trans-2-hexenyl acetate], the pest or weed control at 1 % in test [1] came out at 48%.

`CC1=CC(C)C(C=O)C(C)C1` (centres unmarked) [Isocyclocitral, isocyclocitral]: the “Inhibition of carbon dioxide response (%)” value in test [1] is 61%.

For `CCCCCCCCCCO` [1-Decanol, 1-decanol], in test [1], the pest or weed control at 1 % was determined as 54%.

For `Cc1ncsc1CCO` [4-Methyl-5-thiazoleethanol, 4-methyl-5-thiazoleethanol], in test [2], the pest or weed control at 0.1 % stood at 74.5%.

For `COC(OC)C(C)c1ccccc1` (centres unmarked) [2-Phenylpropionaldehyde dimethyl acetal, 2-phenylpropionaldehyde dimethyl acetal], the pest or weed control at 0.1 % in test [2] amounted to 66.8%.

For the compound `CCCCC1CCC(=O)O1` (centres unmarked) [γ-Octalactone, γ-octalactone], in test [2], the “Inhibitory rate for seeking for heat source (%)” value is listed as 87.4%.

For the compound `CC(=O)OC1CCCCC1C(C)(C)C` (centres unmarked) [o-tert-Butylcyclohexyl acetate, o-tert-butylcyclohexyl acetate], the pest or weed control at 1 % in test [1] was found to be 87%.

`CC1CC2C3CCC(C3)C2CC1=O` (centres unmarked) [octahydro-7-methyl-1,4-methanonaphthalen-6(2H)-one]: in test [3], the “Total landing rate (%)” value is 53.3%, the “Number of landings total” value stood at 12, the “Number of landings 1 min” value worked out at 2 and the “Number of landings 2 min” value was found to be 4. Further, in test [3], the “Number of landings 3 min” value is 6. In test [2], the pest or weed control at 0.1 % is 81.3%.

Consider `COC1CC2CC1C1CC(C=O)CC21` (centres unmarked) [octahydro-5-methoxy-4,7-methano-1H-indene-2-carboxaldehyde], for which the pest or weed control at 0.1 % in test [2] worked out at 89.2%.

`COC(C)(C)CCCC(C)CC=O` (centres unmarked) [7-Methoxy-3,7-dimethyloctanal, 7-methoxy-3,7-dimethyloctanal]: the pest or weed control at 0.1 % in test [2] turned out to be 72.4%.

In the case of `O=CCOc1ccccc1` [Phenoxyacetaldehyde, phenoxyacetaldehyde], in test [2], the pest or weed control at 0.1 % was 89%.

Consider `CCOC(=O)C(C)C1CCCCC1` (centres unmarked) [Ethyl 2-cyclohexylpropionate, ethyl 2-cyclohexylpropionate], for which the pest or weed control at 1 % in test [1] amounted to 48%.

As to `CCCCC(CC)C(=O)OCC` (centres unmarked) [Ethyl 2-ethylhexanoate, ethyl 2-ethylhexanoate], the pest or weed control at 1 % in test [1] was determined as 51%.

As for `CC=C1CC2CC1C1CCC(=O)OC21` (centres unmarked) [9-ethylidene-3-oxatricyclo(6.2.1.0^2,7)undecan-4-one], the pest or weed control at 0.1 % in test [2] came to 85.9%.

For the compound `CC1=C(C=O)C(C)(C)CC=C1` [2,6,6-trimethylcyclohexa-1,3-diene-1-carbaldehyde], in test [2], the pest or weed control at 0.1 % was found to be 91.7%.

As for `C=CC(O)CCCCC` (centres unmarked) [1-Octen-3-ol, 1-octen-3-ol], the pest or weed control at 1 % in test [1] came to 55%.

As for `CC1C(=O)c2ccccc2C1(C)C` (centres unmarked) [2,3,3-Trimethyl-2H-inden-1-one, 2,3,3-trimethyl-2H-inden-1-one], the pest or weed control at 0.1 % in test [2] came to 76.2%.

For the compound `C=CCCCCCCCCO` [9-Decen-1-ol, 9-decen-1-ol], the pest or weed control at 1 % in test [1] was found to be 56%.

`CCCCCC1=C(C)CCC1=O` [3-Methyl-2-pentylcyclopent-2-en-1-one, 3-methyl-2-pentylcyclopent-2-en-1-one]: the pest or weed control at 1 % in test [1] was found to be 68%.

For the compound `O=C1CCC2CCCCC2O1` (centres unmarked) [Octahydro-2H-1-benzopyran-2-one, octahydro-2H-1-benzopyran-2-one], the pest or weed control at 0.1 % in test [2] was determined as 93.3%.

For the compound `Cc1ccc2ncccc2c1` [6-Methylquinoline, 6-methylquinoline], the pest or weed control at 0.1 % in test [2] was determined as 64.7%.

On to `CCCCCCCCO` [1-Octanol, 1-octanol], for which the pest or weed control at 1 % in test [1] was 97%.

Turning to `CCCC1CC(=O)C=C(C)C1` (centres unmarked) [3-Methyl-5-propyl-2-cyclohexen-1-one, 3-methyl-5-propyl-2-cyclohexen-1-one], the pest or weed control at 0.1 % in test [2] was 97.2%.

As to `CCCc1ccc(O)c(OC)c1` [2-Methoxy-4-propylphenol, 2-methoxy-4-propylphenol], the pest or weed control at 1 % in test [1] was determined as 95%.

Turning to `Cc1csc(C(C)C)n1` [2-Isopropyl-4-methylthiazol, 2-isopropyl-4-methylthiazol], in test [1], the pest or weed control at 1 % came to 71%.

On to `CCOC(=O)Cc1ccccc1` [Ethyl phenylacetate, ethyl phenylacetate], for which, in test [1], the pest or weed control at 1 % was found to be 79%.

For the compound `CC/C=C\CCOC(C)=O` [cis-3-Hexenyl acetate, cis-3-hexenyl acetate], the pest or weed control at 1 % in test [1] was found to be 50%.

`CCC(C)(O)CCc1ccccc1` (centres unmarked) [3-Methyl-1-phenyl-3-pentanol, 3-methyl-1-phenyl-3-pentanol]: the pest or weed control at 0.1 % in test [2] was determined as 69.3%.

Turning to `CC1=CC(C)C(CO)CC1` (centres unmarked) [2,4-Dimethylcyclohex-3-ene-1-methanol, 2,4-dimethylcyclohex-3-ene-1-methanol], in test [3], the “Total landing rate (%)” value is listed as 71.1%, the “Number of landings total” value was found to be 16, the “Number of landings 1 min” value amounted to 3 and the “Number of landings 2 min” value is listed as 6. The “Number of landings 3 min” value in test [3] stood at 7. Further, in test [1], the pest or weed control at 1 % came out at 67%.

Regarding `CC1=CC(C)C(CO)C(C)C1` (centres unmarked) [2,4,6-Trimethyl-3-cyclohexene-1-methanol, 2,4,6-trimethyl-3-cyclohexene-1-methanol], the pest or weed control at 1 % in test [1] was determined as 61%.

Regarding `CCC(=O)OCc1ccccc1` [Benzyl propionate, benzyl propionate], the pest or weed control at 1 % in test [1] was determined as 97%.
